The text below walks through data of patent US8309535B2, “Compositions and methods to treat recurrent medical conditions” (priority 2003, dated 2012).

Structures are written as SMILES. Where a name gives a salt, the structure may show the parent alone.

The conditions of series [1]: cited from earlier work.
Series [2] concerns subjects having specific phobias. The note with it: cited from earlier work.
The test system of series [3] is subjects on chronic dosing schedules (chronically ill with tuberculosis). The conditions noted are these: 500-1000 mg/day, side effects correlate with dosage amount; cited from earlier work.
In series [4] the test system is subject afflicted with recurring neuropathic pain. In words: Example 1: treatment of a subject with recurring neuropathic pain. It is filed as in vivo, human. The procedure: After seven days, the dose of amitriptyline was doubled to 20 mg.
Series [5] has as its system subject with paralytic sexual performance anxiety. The conditions noted are these: subject unresponsive to purely behavioral interventions; cited from earlier work.

Turning to `N[C@@H]1CON=C1O` [DCS, D-cycloserine], the “time of peak blood levels after dosing” value in series [1] (after dosing) is 3 to 8 h. Also, the half-life (commonly the time in which the quantity being followed falls by half) in series [1] (in vivo) was 10 h. The “average number of psychotherapy sessions to reach a clinical cure” value in series [2] (DCS in conjunction with psychotherapy, psychotherapy alone required an average of eight sessions) is “two”. The “fewer therapy sessions needed to reach clinical cure” value in series [2] (DCS with cognitive behavioral therapy sessions, phobic disorders) is listed as 75%. Moreover, the infrequent side effects result in series [3] is “drowsiness, headache, confusion, tremor, vertigo, and memory difficulties, paresthesias, and seizure”.
On to `CN(C)CCC=C1c2ccccc2CCc2ccccc21` [amitriptyline hydrochloride], for which the effect on pain entry in series [4] (10 mg per day for seven days) is recorded as “little effect on the pain”; in series [4] (20 mg per day, after two days on the higher dose), “substantially subsided”.
Turning to `CCCc1nn(C)c2c(=O)[nH]c(-c3cc(S(=O)(=O)N4CCN(C)CC4)ccc3OCC)nc12` [sildenafil], the “response to pharmaceutical treatment” value in series [5] is “responded to pharmaceutical treatment”.
